Test results: BindingDB's records for doi:10.1016/0896-6273(93)90149-l (The Scripps Research Institute, 1993)

Key:
[1] = biological target: 5-hydroxytryptamine receptor 7 (Rattus norvegicus, UniProt P32305)
[2] = biological target: T1, 5-hydroxytryptamine receptor 1A (Rattus norvegicus, UniProt P19327)
T1 sequence (P19327 whole entry): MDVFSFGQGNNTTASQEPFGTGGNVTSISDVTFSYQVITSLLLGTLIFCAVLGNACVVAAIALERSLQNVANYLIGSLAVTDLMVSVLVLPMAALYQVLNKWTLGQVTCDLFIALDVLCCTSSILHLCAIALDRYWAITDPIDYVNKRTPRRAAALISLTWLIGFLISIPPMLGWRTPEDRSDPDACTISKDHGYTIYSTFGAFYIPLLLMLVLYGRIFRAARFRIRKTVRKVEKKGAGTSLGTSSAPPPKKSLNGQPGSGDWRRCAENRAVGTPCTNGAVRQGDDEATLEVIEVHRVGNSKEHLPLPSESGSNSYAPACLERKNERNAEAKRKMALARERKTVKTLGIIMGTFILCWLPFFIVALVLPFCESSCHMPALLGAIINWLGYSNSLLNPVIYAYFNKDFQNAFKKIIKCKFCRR

Chain of 5-hydroxytryptamine receptor 7 (P32305 whole entry): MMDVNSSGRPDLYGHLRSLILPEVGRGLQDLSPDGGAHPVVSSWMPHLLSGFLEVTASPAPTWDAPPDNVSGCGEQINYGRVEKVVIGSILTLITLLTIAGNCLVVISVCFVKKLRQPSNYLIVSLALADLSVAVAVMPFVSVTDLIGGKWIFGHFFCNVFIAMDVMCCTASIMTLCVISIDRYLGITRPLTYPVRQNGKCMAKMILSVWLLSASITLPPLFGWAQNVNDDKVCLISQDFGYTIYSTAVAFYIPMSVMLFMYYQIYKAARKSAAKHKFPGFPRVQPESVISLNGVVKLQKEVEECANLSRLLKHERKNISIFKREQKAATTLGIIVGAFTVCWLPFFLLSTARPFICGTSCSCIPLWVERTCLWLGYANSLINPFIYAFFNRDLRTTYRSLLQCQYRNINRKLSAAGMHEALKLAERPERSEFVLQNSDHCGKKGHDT

| SMILES | Ki [1] [nM] | Ki [2] [nM] |
| --- | --- | --- |
| CCCN(CCC)C1CCc2cccc(O)c2C1 (stereo not given) | 53 | – |
| Cc1nc2sccn2c(=O)c1CCN1CCC(=C(c2ccc(F)cc2)c2ccc(F)cc2)CC1 | 33 | – |
| CC[C@@H](CO)NC(=O)[C@@H]1C=C2c3cccc4c3c(cn4C)C[C@H]2N(C)C1 | 17 | 545 |
| NCCc1ccc(O)c(O)c1 | 545 | 545 |
| COc1ccccc1N1CCN(CCCCN2C(=O)c3ccccc3C2=O)CC1 [2-{4-[4-(2-Methoxy-phenyl)-piperazin-1-yl]-butyl}-isoindole-1,3-dione] | 79.1 | – |
| CN1C[C@H](C(=O)N[C@]2(C)O[C@@]3(O)[C@@H]4CCCN4C(=O)[C@H](Cc4ccccc4)N3C2=O)C=C2c3cccc4[nH]cc(c34)C[C@H]21 [12'-hydroxy-2'-methyl-5'alpha-(phenylmethyl)ergotaman-3',6',18-trione] | 17 | 3 |
| O=C1CC2(CCCC2)CC(=O)N1CCCCN1CCN(c2ncccn2)CC1 [BUSPAR] | 375 | – |
| CC(C)NCC(O)COc1cccc2[nH]ccc12 (stereo not given) [LB-46] | 545 | 31 |
| CN1C[C@@H](NS(=O)(=O)N(C)C)C[C@@H]2c3cccc4c3c(cn4C)C[C@H]21 [MESULERGINE] | 9.3 | 545 |
| CN1C[C@H](CNC(=O)OCc2ccccc2)C[C@@H]2c3cccc4c3c(cn4C)C[C@H]21 [METERGOLINE] | 16 | 273 |
| CNS(=O)(=O)Cc1ccc2[nH]cc(CCN(C)C)c2c1 [Sumax] | 545 | – |
| COc1cc(N)c(Cl)cc1C(=O)NC1CN2CCC1CC2 (stereo not given) [ZACOPRIDE,R] | 545 | – |
| NCCc1c[nH]c2ccc(C(N)=O)cc12 [[3H]-5-carboxamidotryptamine] | 0.45 | – |
| CSc1ccc2c(c1)C(N1CCN(C)CC1)Cc1ccccc1S2 (stereo not given) [methanesulfonic acid;1-methyl-4-(3-methylsulfanyl-5,6-dihydrobenzo[b][1]benzothiepin-5-yl)piperazine] | – | 8.7 |
